{"source": "patent US12497362B2", "about": "“Cyclopentapyrrole orexin receptor agonists” (Merck Sharp & Dohme LLC, priority 2020, dated 2025)"}
{"biological_target": "T1, human OX2R (Homo sapiens, UniProt O43614)", "T1 construct": "expressed in transfected cells; host or cells: CHO (Chinese hamster ovary) cells, grown under G418 selection", "T1 sequence (O43614 1-444)": "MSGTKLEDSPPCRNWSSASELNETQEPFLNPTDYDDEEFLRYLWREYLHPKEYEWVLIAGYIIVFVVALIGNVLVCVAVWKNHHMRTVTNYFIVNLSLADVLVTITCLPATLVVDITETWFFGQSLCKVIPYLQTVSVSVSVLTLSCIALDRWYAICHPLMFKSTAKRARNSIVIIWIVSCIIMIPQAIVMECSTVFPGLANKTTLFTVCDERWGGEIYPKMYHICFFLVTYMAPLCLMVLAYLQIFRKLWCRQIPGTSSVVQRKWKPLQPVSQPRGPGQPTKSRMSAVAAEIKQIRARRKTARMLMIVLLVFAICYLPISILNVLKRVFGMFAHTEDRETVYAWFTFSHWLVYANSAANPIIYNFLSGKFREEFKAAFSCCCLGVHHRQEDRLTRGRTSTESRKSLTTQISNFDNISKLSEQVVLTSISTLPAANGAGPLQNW", "test": "IPOne (IP-1 accumulation) orexin receptor agonist assay in CHO cells expressing human OX2R", "assay_type": "cell-based", "settings": "hOX2R IP-One assay, percent of mean max effect of a reference compound at 1 uM with 100% activity established by comparison to Orexin A", "source_text": "The utility of the compounds in accordance with the present invention as orexin receptor OX1R and/or OX2R agonists may be readily determined without undue experimentation by methodology well known in the art. Both the OX1R and/or OX2R G-coupled protein receptors (GPCRs) couple through the Gαq signaling pathway, which ultimately promotes calcium mobilization via inositol triphosphate (IP3) production. The half-life of IP-3 is relatively short, being rapidly metabolized to inositol monophosphate (IP-1), which can be readily detected using a commercially available assay kit (IP-One; Cisbio; cat #621PAPEC) coupled with a cell line expressing the target receptor(s) of interest. The utility of the compounds in accordance with the present invention as orexin receptor OX1R and/or OX2R agonists may be determined utilizing this assay.\nIn a typical experiment, the OX1 and OX2 receptor agonist activity is determined in accordance with the following general experimental method. Chinese hamster ovary (CHO) cells expressing human OX1R and/or the human OX2R were grown in Iscove's modified DMEM containing glutaMAX™, 1% G418, 100 U/mL penicillin, 100 μg/mL streptomycin and 10% heat-inactivated qualified fetal bovine serum (FBS). The OX2R cells were seeded at 10,000 cells/well/50 μL and the OX1R cells were seeded at 20,000 cells/well/50 μL into 384-well white tissue culture plates (Greiner; cat #781080). All cell/media reagents were from GIBCO-Invitrogen Corp. The seeded cell plate(s) were incubated at 37° C. with 5% CO2 and 85% humidity for 20-24 hours. On the day of the assay, assay-ready compound plates were prepared using an acoustic liquid handler (ECHO; Labcyte), which dispensed sufficient volume of test compound stock (10 mM in DMSO) or 100% DMSO to prepare 10 point, ½-log dilutions in a final volume of 202.5 nL/well in all test wells of a 384-well diamond plate (Labcyte). Following completion of assay-ready plates, importantly, the next three steps were performed with minimal delay: 1) 20 μl of 1× stimulation buffer was added to the compound plate using a Multidrop Combi (small cassette, Thermo Fisher Scientific cat #24073290); 2) culture medium was removed from the cell plate using the Bluewasher plate washer (gentle spin; BlueCatBio); 3) 14 μl of compound/stimulation buffer mixture was added to the cell plate using a Bravo liquid handler (Agilent) prior to incubating cell plates at 37° C. with 5% CO2 and 85% humidity for 1 or 2 hours (OX1R and OX2R, respectively). During this incubation, IP-one detection reagents were prepared (38:1:1 lysis buffer:D2:AB-cryptate reagents). Six μL of mixed detection reagents were added to the cell plate using a Multidrop Combi (small cassette, Thermo Fisher Scientific cat #24073290) and incubated 60 minutes at room temperature in the dark. Fluorescence signal was detected using an Envision plate reader (Perkin Elmer) [LANCE/DELFIA Dual Enh (Em: APC 665; Ex: Cy5 620)].\nFor each compound, data were fit to a four parameter logistic fit (ActivityBase software) and the EC50 was reported as the inflection point of the resulting curve. Percent effect for each test compound was determined as the percentage of sample raw value/mean max effect, where the mean max effect was derived from the mean raw value of 32 control wells per assay plate (using Orexin A (cat #003-30) at 1 μM for human OX1R and a reference compound at 1 uM with 100% activity previously established by comparison to Orexin A for human OX2R). The intrinsic orexin receptor agonist activity of a compound which may be used in the present invention may be determined by these assays.", "units": {"Emax": "%"}}
{"compound": "COC(=O)N1[C@@H]2CCC[C@@H]2[C@H](NS(=O)(=O)N(C)C)[C@@H]1CO[C@H]1CC[C@@H](c2cccc(F)c2)CC1", "note": "[Example 2, methyl (2R,3S,3aS,6aR)-3-((N,N-dimethylsulfamoyl)amino)-2-((((1s,4S)-4-(3-fluorophenyl)cyclohexyl)oxy)methyl)hexahydrocyclopenta[b]pyrrole-1(2H)-carboxylate]", "Emax": 101}
{"compound": "COC(=O)N1[C@@H]2CCC[C@@H]2[C@H](NS(=O)(=O)N(C)C)[C@@H]1CO[C@H]1CC[C@@H](c2ccccc2)CC1", "note": "[Example 8, Methyl (2R,3S,3aS,6aR)-3-((N,N-dimethylsulfamoyl)amino)-2-((((1s,4S)-4-phenyl-cyclohexyl)oxy)methyl)hexahydrocyclopenta[b]pyrrole-1(2H)-carboxylate]", "Emax": 98}
{"compound": "COC(=O)N1[C@@H]2COC[C@@H]2[C@H](NS(=O)(=O)CF)[C@@H]1CO[C@H]1CC[C@@H](c2cccc(F)c2)CC1", "note": "[Example 6, methyl (2R,3S,3aS,6aS)-3-((fluoromethyl)sulfonamido)-2-((((1s,4S)-4-(3-fluorophenyl)-cyclohexyl)oxy)methyl)hexahydro-1H-furo[3,4-b]pyrrole-1-carboxylate]", "Emax": 102}
{"compound": "COC(=O)N1[C@@H]2COC[C@@H]2[C@H](NS(C)(=O)=O)[C@@H]1CO[C@H]1CC[C@@H](c2cccc(F)c2)CC1", "note": "[Example 4, methyl (2R,3S,3aS,6aS)-2-((((1s,4S)-4-(3-fluorophenyl)cyclohexyl)oxy)methyl)-3-(methylsulfonamido)hexahydro-1H-furo[3,4-b]pyrrole-1-carboxylate]", "Emax": 101}
{"compound": "COC(=O)N1[C@@H]2CC[C@@H]2[C@H](NS(C)(=O)=O)[C@@H]1CO[C@H]1CC[C@@H](c2ccccc2)CC1", "note": "[Example 11, methyl (1R,3R,4S,5S)-4-(methylsulfonamido)-3-((((1s,4S)-4-phenylcyclohexyl)oxy)methyl)-2-azabicyclo[3.2.0]heptane-2-carboxylate]", "Emax": 103}
{"compound": "CNS(=O)(=O)N[C@H]1[C@H]2CCC[C@H]2N(C(=O)OC)[C@H]1CO[C@H]1CC[C@@H](c2cccc(F)c2)CC1", "note": "[Example 3, methyl (2R,3S,3aS,6aR)-2-((((1s,4S)-4-(3-fluorophenyl)cyclohexyl)oxy)methyl)-3-((N-methylsulfamoyl)amino)hexahydrocyclopenta[b]pyrrole-1(2H)-carboxylate]", "Emax": 98}
{"compound": "COC(=O)N1[C@@H]2CCC[C@@H]2[C@H](NS(C)(=O)=O)[C@@H]1CO[C@H]1CC[C@@H](c2cccc(F)c2)CC1", "note": "[Example 1, methyl (2R,3S,3aS,6aR)-2-((((1s,4S)-4-(3-fluorophenyl)cyclohexyl)oxy)methyl)-3-(methylsulfonamido)hexahydrocyclopenta[b]pyrrole-1(2H)-carboxylate]", "Emax": 101}
{"compound": "COC(=O)N1[C@@H]2COC[C@@H]2[C@H](NS(=O)(=O)N(C)C)[C@@H]1CO[C@H]1CC[C@@H](c2cccc(F)c2)CC1", "note": "[Example 5, methyl (2R,3S,3aS,6aS)-3-((N,N-dimethylsulfamoyl)amino)-2-((((1s,4S)-4-(3-fluorophenyl)cyclohexyl)oxy)methyl)hexahydro-1H-furo[3,4-b]pyrrole-1-carboxylate]", "Emax": 101}
{"compound": "COC(=O)N1[C@@H]2CCC[C@@H]2[C@H](NS(C)(=O)=O)[C@@H]1COC1CCN(c2ncc(F)cn2)CC1", "note": "[Example 9, Methyl (2R,3S,3aS,6aR)-2-(((1-(5-fluoropyrimidin-2-yl)piperidin-4-yl)oxy)methyl)-3-(methylsulfonamido)hexahydrocyclopenta[b]pyrrole-1(2H)-carboxylate]", "Emax": 97}
{"compound": "CC(C)OC(=O)N1[C@@H]2CCC[C@@H]2[C@H](NS(C)(=O)=O)[C@@H]1COC1CCN(c2ncc(F)cn2)CC1", "note": "[Example 10, Isopropyl (2R,3S,3aS,6aR)-2-(((1-(5-fluoropyrimidin-2-yl)piperidin-4-yl)oxy)methyl)-3-(methylsulfonamido)hexahydrocyclopenta[b]pyrrole-1(2H)-carboxylate]", "Emax": 103}
{"compound": "COC(=O)N1[C@@H]2CCC[C@@H]2[C@H](NS(C)(=O)=O)[C@@H]1CO[C@H]1CC[C@@H](c2ccccc2)CC1", "note": "[Example 7, Methyl (2R,3S,3aS,6aR)-3-(methylsulfonamido)-2-((((1s,4S)-4-phenylcyclohexyl)oxy)-methyl)hexahydrocyclopenta[b]pyrrole-1(2H)-carboxylate]", "Emax": 101}
